Measurements reported in paper PMC6081437, “The potency of the broad spectrum bacteriocin, bactofencin A, against staphylococci is highly dependent on primary structure, N-terminal charge and disulphide formation” (Scientific Reports, 2018).
Bridge positions count the residues as written; N and C are the ends. Square brackets hold non-standard residues; d marks the D form. Ends that are not written are not given here. Peptide text beside a SMILES is read from it.

Tested on: S. aureus DPC5246
Assay type: cell-based, Staphylococcus aureus
Details: for Activity (Minimum Inhibitory Concentration, MIC): DPC5246, pH 6.8; for fold reduction in activity compared with bactofencin A (wild type): S. aureus DPC5246, agar well diffusion MIC
Procedure: Peptides were resuspended at 1000 µM in 50 mM sodium phosphate buffer pH 6.8 and checked for purity by MALDI-TOF-MS. Peptides were serially diluted 1 in 4 to give a dilution series of 250, 62.50, 15.63, 3.91, 0.98 and 0.24 µM and assayed by the agar well diffusion assay described by Ryan et al.[19]. Briefly, 50 µl aliquots of each peptide concentration were plated on a S. aureus DPC5246 indicator plate and the plate incubated at 37 °C. Peptide activity (Minimum Inhibitory Concentration (MIC)) was taken as the lowest concentration of peptide to give a zone of inhibition. All assays were performed in triplicate. The dilution series values were rounded to the nearest whole number to give 1000, 250, 63, 16, 4, 1 and 0.25 µM and data is colour coded for ease of interpretation.

## KRKKHRSRVYNNGMPTGMYRWS [C7S-C22S]
  Activity (Minimum Inhibitory Concentration, MIC): 63 µM

## CSCC[C@@H]1NC(=O)CNC(=O)[C@H]([C@@H](C)O)NC(=O)[C@@H]2CCCN2C(=O)[C@H](CCSC)NC(=O)CNC(=O)[C@H](CC(N)=O)NC(=O)[C@H](CC(N)=O)NC(=O)[C@H](Cc2ccc(O)cc2)NC(=O)[C@H](C(C)C)NC(=O)[C@H](CCCNC(=N)N)NC(=O)[C@@H](NC(=O)[C@H](CCCNC(=N)N)NC(=O)[C@@H](N)Cc2c[nH]cn2)CSSC[C@@H](C(=O)O)NC(=O)[C@H](Cc2c[nH]c3ccccc23)NC(=O)[C@H](CCCNC(=N)N)NC(=O)[C@H](Cc2ccc(O)cc2)NC1=O [H5-C22] (H-HRCRVYNNGMPTGMYRWC-OH; disulfide 3-18; N-terminus assumed)
  Activity (Minimum Inhibitory Concentration, MIC): 16 µM

## CSCC[C@@H]1NC(=O)CNC(=O)[C@H]([C@@H](C)O)NC(=O)[C@@H]2CCCN2C(=O)[C@H](CCSC)NC(=O)CNC(=O)[C@H](CC(N)=O)NC(=O)[C@H](CC(N)=O)NC(=O)[C@H](Cc2ccc(O)cc2)NC(=O)[C@H](C(C)C)NC(=O)[C@H](CCCNC(=N)N)NC(=O)[C@@H](N)CSSC[C@@H](C(=O)O)NC(=O)[C@H](Cc2c[nH]c3ccccc23)NC(=O)[C@H](CCCNC(=N)N)NC(=O)[C@H](Cc2ccc(O)cc2)NC1=O [C7-C22] (H-CRVYNNGMPTGMYRWC-OH; disulfide 1-16; N-terminus assumed)
  Activity (Minimum Inhibitory Concentration, MIC): > 1000 µM

## CSCC[C@@H]1NC(=O)CNC(=O)[C@H]([C@@H](C)O)NC(=O)[C@@H]2CCCN2C(=O)[C@H](CCSC)NC(=O)CNC(=O)[C@H](CC(N)=O)NC(=O)[C@H](CC(N)=O)NC(=O)[C@H](Cc2ccc(O)cc2)NC(=O)[C@H](C(C)C)NC(=O)[C@H](CCCNC(=N)N)NC(=O)[C@@H](NC(=O)[C@H](CCCNC(=N)N)NC(=O)[C@H](Cc2c[nH]cn2)NC(=O)[C@H](CCCCN)NC(=O)[C@H](CCCCN)NC(=O)[C@H](CCCNC(=N)N)NC(=O)[C@@H](N)CCCCN)CSSC[C@@H](C(=O)O)NC(=O)[C@H](C)NC(=O)[C@H](CCCNC(=N)N)NC(=O)[C@H](Cc2ccc(O)cc2)NC1=O [W21A] (H-KRKKHRCRVYNNGMPTGMYRAC-OH; disulfide 7-22)
  Activity (Minimum Inhibitory Concentration, MIC): 1 µM

## CSCC[C@@H]1NC(=O)CNC(=O)[C@H]([C@@H](C)O)NC(=O)[C@@H]2CCCN2C(=O)[C@H](CCSC)NC(=O)CNC(=O)[C@H](CC(N)=O)NC(=O)[C@H](CC(N)=O)NC(=O)[C@H](Cc2ccc(O)cc2)NC(=O)[C@H](C(C)C)NC(=O)[C@H](CCCNC(=N)N)NC(=O)[C@@H](NC(=O)[C@H](CCCNC(=N)N)NC(=O)[C@H](Cc2c[nH]cn2)NC(=O)[C@H](CCCCN)NC(=O)[C@H](C)NC(=O)[C@H](CCCNC(=N)N)NC(=O)[C@@H](N)CCCCN)CSSC[C@@H](C(=O)O)NC(=O)[C@H](Cc2c[nH]c3ccccc23)NC(=O)[C@H](CCCNC(=N)N)NC(=O)[C@H](Cc2ccc(O)cc2)NC1=O [K3A] (H-KRAKHRCRVYNNGMPTGMYRWC-OH; disulfide 7-22)
  Activity (Minimum Inhibitory Concentration, MIC): 1 µM

## CSCC[C@@H]1NC(=O)CNC(=O)[C@H]([C@@H](C)O)NC(=O)[C@@H]2CCCN2C(=O)[C@H](CCSC)NC(=O)CNC(=O)[C@H](CC(N)=O)NC(=O)[C@H](CC(N)=O)NC(=O)[C@H](Cc2ccc(O)cc2)NC(=O)[C@H](C(C)C)NC(=O)[C@H](CCCNC(=N)N)NC(=O)[C@@H](NC(=O)[C@H](CCCNC(=N)N)NC(=O)[C@H](Cc2c[nH]cn2)NC(=O)[C@H](CCCCN)NC(=O)[C@H](CCCCN)NC(=O)[C@H](CCCNC(=N)N)NC(=O)[C@@H](N)CCCCN)CSSC[C@@H](C(=O)O)NC(=O)[C@@H](Cc2c[nH]c3ccccc23)NC(=O)[C@H](CCCNC(=N)N)NC(=O)[C@H](Cc2ccc(O)cc2)NC1=O [W21Wd] (H-KRKKHRCRVYNNGMPTGMYR[dW]C-OH; disulfide 7-22; N-terminus assumed)
  Activity (Minimum Inhibitory Concentration, MIC): 4 µM

## CSCC[C@@H]1NC(=O)CNC(=O)[C@H]([C@@H](C)O)NC(=O)[C@@H]2CCCN2C(=O)[C@H](CCSC)NC(=O)CNC(=O)[C@H](CC(N)=O)NC(=O)[C@H](CC(N)=O)NC(=O)[C@H](Cc2ccc(O)cc2)NC(=O)[C@H](C(C)C)NC(=O)[C@H](CCCNC(=N)N)NC(=O)[C@@H](NC(=O)[C@H](CCCNC(=N)N)NC(=O)[C@H](Cc2c[nH]cn2)NC(=O)[C@H](CCCCN)NC(=O)[C@H](CCCCN)NC(=O)[C@H](CCCNC(=N)N)NC(=O)[C@@H](N)CCCCN)CSSC[C@@H](C(=O)O)NC(=O)[C@H](Cc2c[nH]c3ccccc23)NC(=O)[C@H](CCCNC(=N)N)NC(=O)[C@@H](Cc2ccc(O)cc2)NC1=O [Y19Yd] (H-KRKKHRCRVYNNGMPTGM[dY]RWC-OH; disulfide 7-22; N-terminus assumed)
  Activity (Minimum Inhibitory Concentration, MIC): 63 µM
  fold reduction in activity compared with bactofencin A (wild type): 63 fold

## CSCC[C@@H]1NC(=O)CNC(=O)[C@H]([C@@H](C)O)NC(=O)[C@@H]2CCCN2C(=O)[C@H](CCSC)NC(=O)CNC(=O)[C@H](CC(N)=O)NC(=O)[C@H](CC(N)=O)NC(=O)[C@H](Cc2ccc(O)cc2)NC(=O)[C@H](C(C)C)NC(=O)[C@H](CCCNC(=N)N)NC(=O)[C@@H](NC(=O)[C@H](CCCNC(=N)N)NC(=O)[C@H](Cc2c[nH]cn2)NC(=O)[C@H](CCCCN)NC(=O)[C@H](CCCCN)NC(=O)[C@@H](N)CCCNC(=N)N)CSSC[C@@H](C(=O)O)NC(=O)[C@H](Cc2c[nH]c3ccccc23)NC(=O)[C@H](CCCNC(=N)N)NC(=O)[C@H](Cc2ccc(O)cc2)NC1=O [R2-C22] (H-RKKHRCRVYNNGMPTGMYRWC-OH; disulfide 6-21; N-terminus assumed)
  Activity (Minimum Inhibitory Concentration, MIC): 1 µM
S. aureus DPC5246, agar well diffusion
  activity compared with bactofencin A, in words: no effect on activity

## CSCC[C@@H]1NC(=O)CNC(=O)[C@H]([C@@H](C)O)NC(=O)[C@@H]2CCCN2C(=O)[C@H](CCSC)NC(=O)CNC(=O)[C@H](CC(N)=O)NC(=O)[C@H](CC(N)=O)NC(=O)[C@H](Cc2ccc(O)cc2)NC(=O)[C@H](C(C)C)NC(=O)[C@H](CCCNC(=N)N)NC(=O)[C@@H](NC(=O)[C@H](CCCNC(=N)N)NC(=O)[C@H](Cc2c[nH]cn2)NC(=O)[C@H](CCCCN)NC(=O)[C@H](CCCCN)NC(=O)[C@H](CCCNC(=N)N)NC(=O)[C@@H](N)CCCCN)CSSC[C@@H](C(=O)O)NC(=O)[C@H](Cc2c[nH]c3ccccc23)NC(=O)[C@H](C)NC(=O)[C@H](Cc2ccc(O)cc2)NC1=O [R20A] (H-KRKKHRCRVYNNGMPTGMYAWC-OH; disulfide 7-22)
  Activity (Minimum Inhibitory Concentration, MIC): 1 µM

## CSCC[C@@H]1NC(=O)CNC(=O)[C@H]([C@@H](C)O)NC(=O)[C@@H]2CCCN2C(=O)[C@H](CCSC)NC(=O)CNC(=O)[C@H](CC(N)=O)NC(=O)[C@H](CC(N)=O)NC(=O)[C@H](Cc2ccc(O)cc2)NC(=O)[C@H](C(C)C)NC(=O)[C@H](CCCNC(=N)N)NC(=O)[C@@H](NC(=O)[C@H](CCCNC(=N)N)NC(=O)[C@H](Cc2c[nH]cn2)NC(=O)[C@H](CCCCN)NC(=O)[C@H](CCCCN)NC(=O)[C@H](CCCNC(=N)N)NC(=O)[C@@H](N)CCCCN)CSSC[C@@H](C(=O)O)NC(=O)[C@H](Cc2c[nH]c3ccccc23)NC(=O)[C@H](CCCNC(=N)N)NC(=O)[C@H](C)NC1=O [Y19A] (H-KRKKHRCRVYNNGMPTGMARWC-OH; disulfide 7-22)
  Activity (Minimum Inhibitory Concentration, MIC): 1 µM

## KRKKHRARVYNNGMPTGMYRWC-OH [C7A]
  Activity (Minimum Inhibitory Concentration, MIC): 16 µM
  fold reduction in activity compared with bactofencin A (wild type): 16 fold

## KRKKHRCRVYNNGMPTGMYRWA-OH [C22A]
  Activity (Minimum Inhibitory Concentration, MIC): 63 µM
  fold reduction in activity compared with bactofencin A (wild type): 63 fold

## CSCC[C@@H]1NC(=O)CNC(=O)[C@H]([C@@H](C)O)NC(=O)[C@@H]2CCCN2C(=O)[C@H](CCSC)NC(=O)CNC(=O)[C@H](CC(N)=O)NC(=O)[C@H](CC(N)=O)NC(=O)[C@H](Cc2ccc(O)cc2)NC(=O)[C@@H](C(C)C)NC(=O)[C@H](CCCNC(=N)N)NC(=O)[C@@H](NC(=O)[C@H](CCCNC(=N)N)NC(=O)[C@H](Cc2c[nH]cn2)NC(=O)[C@H](CCCCN)NC(=O)[C@H](CCCCN)NC(=O)[C@H](CCCNC(=N)N)NC(=O)[C@@H](N)CCCCN)CSSC[C@@H](C(=O)O)NC(=O)[C@H](Cc2c[nH]c3ccccc23)NC(=O)[C@H](CCCNC(=N)N)NC(=O)[C@H](Cc2ccc(O)cc2)NC1=O [V9Vd] (H-KRKKHRCR[dV]YNNGMPTGMYRWC-OH; disulfide 7-22; N-terminus assumed)
  Activity (Minimum Inhibitory Concentration, MIC): 63 µM
  fold reduction in activity compared with bactofencin A (wild type): 63 fold

## CSCC[C@@H]1NC(=O)CNC(=O)[C@H]([C@@H](C)O)NC(=O)[C@@H]2CCCN2C(=O)[C@H](CCSC)NC(=O)CNC(=O)[C@H](CC(N)=O)NC(=O)[C@H](CC(N)=O)NC(=O)[C@H](Cc2ccc(O)cc2)NC(=O)[C@H](C(C)C)NC(=O)[C@H](CCCNC(=N)N)NC(=O)[C@@H](NC(=O)[C@H](C)NC(=O)[C@H](Cc2c[nH]cn2)NC(=O)[C@H](CCCCN)NC(=O)[C@H](CCCCN)NC(=O)[C@H](CCCNC(=N)N)NC(=O)[C@@H](N)CCCCN)CSSC[C@@H](C(=O)O)NC(=O)[C@H](Cc2c[nH]c3ccccc23)NC(=O)[C@H](CCCNC(=N)N)NC(=O)[C@H](Cc2ccc(O)cc2)NC1=O [R6A] (H-KRKKHACRVYNNGMPTGMYRWC-OH; disulfide 7-22)
  Activity (Minimum Inhibitory Concentration, MIC): 1 µM

## CSCC[C@@H]1NC(=O)CNC(=O)[C@H]([C@@H](C)O)NC(=O)[C@@H]2CCCN2C(=O)[C@H](CCSC)NC(=O)CNC(=O)[C@H](CC(N)=O)NC(=O)[C@H](CC(N)=O)NC(=O)[C@H](Cc2ccc(O)cc2)NC(=O)[C@H](C(C)C)NC(=O)[C@H](CCCNC(=N)N)NC(=O)[C@@H](NC(=O)[C@H](CCCNC(=N)N)NC(=O)[C@H](Cc2c[nH]cn2)NC(=O)[C@H](C)NC(=O)[C@H](CCCCN)NC(=O)[C@H](CCCNC(=N)N)NC(=O)[C@@H](N)CCCCN)CSSC[C@@H](C(=O)O)NC(=O)[C@H](Cc2c[nH]c3ccccc23)NC(=O)[C@H](CCCNC(=N)N)NC(=O)[C@H](Cc2ccc(O)cc2)NC1=O [K4A] (H-KRKAHRCRVYNNGMPTGMYRWC-OH; disulfide 7-22)
  Activity (Minimum Inhibitory Concentration, MIC): 1 µM
